{
  "source": "ChEMBL document CHEMBL5678818",
  "about": "“Discovery of potent SOS1 inhibitors that block RAS activation via disruption of the RAS-SOS1 interaction” (Proc Natl Acad Sci U S A, 2019)",
  "key": {"[1]": {"organism": "Homo sapiens", "test": "Inhibition of N-terminal GST-tagged recombinant human SOS1 S876K mutant (564 to 1049 residues) expressed in Escherichia coli assessed as reduction in KRAS G12C mutant activation at 10 uM by HTRF analysis relative to control"}, "[2]": {"target": "T1, Bone morphogenetic protein receptor type-2 (Homo sapiens) (UniProt Q13873)", "T1 sequence (whole entry)": "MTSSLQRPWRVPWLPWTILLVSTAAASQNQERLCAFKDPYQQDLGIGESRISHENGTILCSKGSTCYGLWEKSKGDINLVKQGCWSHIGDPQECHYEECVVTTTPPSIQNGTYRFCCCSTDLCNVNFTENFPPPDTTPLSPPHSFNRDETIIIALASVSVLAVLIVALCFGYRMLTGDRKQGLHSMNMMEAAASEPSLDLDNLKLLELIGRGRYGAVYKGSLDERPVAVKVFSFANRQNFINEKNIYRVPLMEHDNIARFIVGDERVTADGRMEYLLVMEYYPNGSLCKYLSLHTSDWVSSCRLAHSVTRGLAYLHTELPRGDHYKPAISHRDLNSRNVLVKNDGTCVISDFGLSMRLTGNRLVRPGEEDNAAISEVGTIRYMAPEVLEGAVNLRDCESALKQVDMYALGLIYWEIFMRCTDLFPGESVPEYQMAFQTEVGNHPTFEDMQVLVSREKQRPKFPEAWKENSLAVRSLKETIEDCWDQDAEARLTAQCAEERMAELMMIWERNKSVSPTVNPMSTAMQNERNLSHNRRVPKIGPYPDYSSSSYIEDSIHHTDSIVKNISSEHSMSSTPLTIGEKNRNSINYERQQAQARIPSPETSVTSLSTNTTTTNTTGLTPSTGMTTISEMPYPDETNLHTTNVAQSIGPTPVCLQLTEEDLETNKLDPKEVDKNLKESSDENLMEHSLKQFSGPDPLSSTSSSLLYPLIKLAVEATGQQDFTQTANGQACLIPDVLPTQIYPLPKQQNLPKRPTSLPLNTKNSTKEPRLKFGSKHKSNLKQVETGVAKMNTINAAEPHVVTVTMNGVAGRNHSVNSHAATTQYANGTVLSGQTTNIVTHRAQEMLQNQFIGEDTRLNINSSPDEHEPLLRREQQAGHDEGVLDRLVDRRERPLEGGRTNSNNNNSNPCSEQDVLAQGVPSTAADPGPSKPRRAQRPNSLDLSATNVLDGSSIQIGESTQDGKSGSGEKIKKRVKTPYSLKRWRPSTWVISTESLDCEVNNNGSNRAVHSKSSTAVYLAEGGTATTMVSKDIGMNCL", "test": "Inhibition of BMPR2 (unknown origin) assessed as residual activity at 100 nM by KINOMEscan analysis relative to control"}, "[3]": {"test_system": "Serine/threonine-protein kinase B-raf (Homo sapiens), P15056 [V600E]", "sequence (P15056 whole entry V600E)": "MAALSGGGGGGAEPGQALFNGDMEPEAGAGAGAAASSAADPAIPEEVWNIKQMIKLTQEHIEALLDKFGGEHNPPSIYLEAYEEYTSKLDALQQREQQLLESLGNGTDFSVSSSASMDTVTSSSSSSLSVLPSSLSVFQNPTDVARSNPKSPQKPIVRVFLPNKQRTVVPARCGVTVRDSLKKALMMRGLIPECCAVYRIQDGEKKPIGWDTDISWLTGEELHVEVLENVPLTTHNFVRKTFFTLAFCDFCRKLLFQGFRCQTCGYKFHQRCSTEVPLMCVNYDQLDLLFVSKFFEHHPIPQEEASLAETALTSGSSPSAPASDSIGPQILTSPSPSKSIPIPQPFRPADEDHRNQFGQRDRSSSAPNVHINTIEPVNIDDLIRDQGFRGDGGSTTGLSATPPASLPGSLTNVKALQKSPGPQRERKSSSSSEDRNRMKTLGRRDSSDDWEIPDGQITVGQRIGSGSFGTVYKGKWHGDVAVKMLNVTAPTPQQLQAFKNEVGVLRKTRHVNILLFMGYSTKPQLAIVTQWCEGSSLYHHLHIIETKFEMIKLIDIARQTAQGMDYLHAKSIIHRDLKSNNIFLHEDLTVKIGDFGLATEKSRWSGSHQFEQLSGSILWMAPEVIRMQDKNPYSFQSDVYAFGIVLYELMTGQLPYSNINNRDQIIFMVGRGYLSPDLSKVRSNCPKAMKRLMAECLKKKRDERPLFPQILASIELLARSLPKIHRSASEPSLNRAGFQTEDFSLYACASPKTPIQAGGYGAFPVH", "test": "Inhibition of BRAF V600E mutant (unknown origin) assessed as residual activity at 100 nM by KINOMEscan analysis relative to control"}, "[4]": {"target": "Cyclin-dependent kinase 9 (Homo sapiens) (UniProt P50750)", "sequence (P50750 whole entry)": "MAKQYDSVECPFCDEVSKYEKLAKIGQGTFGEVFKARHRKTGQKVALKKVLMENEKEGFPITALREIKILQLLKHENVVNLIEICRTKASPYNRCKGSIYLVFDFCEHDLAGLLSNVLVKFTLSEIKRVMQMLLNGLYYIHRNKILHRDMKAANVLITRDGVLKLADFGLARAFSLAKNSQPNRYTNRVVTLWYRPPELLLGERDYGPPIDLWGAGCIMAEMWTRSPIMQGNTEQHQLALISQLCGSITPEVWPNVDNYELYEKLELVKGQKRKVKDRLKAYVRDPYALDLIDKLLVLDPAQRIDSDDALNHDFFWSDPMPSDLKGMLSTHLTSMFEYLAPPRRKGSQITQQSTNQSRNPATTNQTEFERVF", "test": "Inhibition of CDK9 (unknown origin) assessed as residual activity at 100 nM by KINOMEscan analysis relative to control"}, "[5]": {"target": "Casein kinase II subunit alpha' (Homo sapiens) (UniProt P19784)", "sequence (P19784 whole entry, looked up)": "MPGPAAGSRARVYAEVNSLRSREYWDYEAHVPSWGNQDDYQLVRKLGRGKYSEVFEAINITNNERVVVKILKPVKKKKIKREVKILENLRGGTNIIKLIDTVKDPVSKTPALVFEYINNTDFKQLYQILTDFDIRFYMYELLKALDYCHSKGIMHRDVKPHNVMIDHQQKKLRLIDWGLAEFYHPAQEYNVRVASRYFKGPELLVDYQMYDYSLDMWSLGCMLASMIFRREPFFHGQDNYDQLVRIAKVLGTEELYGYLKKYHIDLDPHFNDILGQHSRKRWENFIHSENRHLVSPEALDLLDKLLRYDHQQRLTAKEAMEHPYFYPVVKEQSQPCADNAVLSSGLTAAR", "test": "Inhibition of CSNK2A2 (unknown origin) assessed as residual activity at 100 nM by KINOMEscan analysis relative to control"}, "[6]": {"target": "Mitogen-activated protein kinase kinase kinase 4 (Homo sapiens) (UniProt Q9Y6R4)", "sequence (Q9Y6R4 whole entry)": "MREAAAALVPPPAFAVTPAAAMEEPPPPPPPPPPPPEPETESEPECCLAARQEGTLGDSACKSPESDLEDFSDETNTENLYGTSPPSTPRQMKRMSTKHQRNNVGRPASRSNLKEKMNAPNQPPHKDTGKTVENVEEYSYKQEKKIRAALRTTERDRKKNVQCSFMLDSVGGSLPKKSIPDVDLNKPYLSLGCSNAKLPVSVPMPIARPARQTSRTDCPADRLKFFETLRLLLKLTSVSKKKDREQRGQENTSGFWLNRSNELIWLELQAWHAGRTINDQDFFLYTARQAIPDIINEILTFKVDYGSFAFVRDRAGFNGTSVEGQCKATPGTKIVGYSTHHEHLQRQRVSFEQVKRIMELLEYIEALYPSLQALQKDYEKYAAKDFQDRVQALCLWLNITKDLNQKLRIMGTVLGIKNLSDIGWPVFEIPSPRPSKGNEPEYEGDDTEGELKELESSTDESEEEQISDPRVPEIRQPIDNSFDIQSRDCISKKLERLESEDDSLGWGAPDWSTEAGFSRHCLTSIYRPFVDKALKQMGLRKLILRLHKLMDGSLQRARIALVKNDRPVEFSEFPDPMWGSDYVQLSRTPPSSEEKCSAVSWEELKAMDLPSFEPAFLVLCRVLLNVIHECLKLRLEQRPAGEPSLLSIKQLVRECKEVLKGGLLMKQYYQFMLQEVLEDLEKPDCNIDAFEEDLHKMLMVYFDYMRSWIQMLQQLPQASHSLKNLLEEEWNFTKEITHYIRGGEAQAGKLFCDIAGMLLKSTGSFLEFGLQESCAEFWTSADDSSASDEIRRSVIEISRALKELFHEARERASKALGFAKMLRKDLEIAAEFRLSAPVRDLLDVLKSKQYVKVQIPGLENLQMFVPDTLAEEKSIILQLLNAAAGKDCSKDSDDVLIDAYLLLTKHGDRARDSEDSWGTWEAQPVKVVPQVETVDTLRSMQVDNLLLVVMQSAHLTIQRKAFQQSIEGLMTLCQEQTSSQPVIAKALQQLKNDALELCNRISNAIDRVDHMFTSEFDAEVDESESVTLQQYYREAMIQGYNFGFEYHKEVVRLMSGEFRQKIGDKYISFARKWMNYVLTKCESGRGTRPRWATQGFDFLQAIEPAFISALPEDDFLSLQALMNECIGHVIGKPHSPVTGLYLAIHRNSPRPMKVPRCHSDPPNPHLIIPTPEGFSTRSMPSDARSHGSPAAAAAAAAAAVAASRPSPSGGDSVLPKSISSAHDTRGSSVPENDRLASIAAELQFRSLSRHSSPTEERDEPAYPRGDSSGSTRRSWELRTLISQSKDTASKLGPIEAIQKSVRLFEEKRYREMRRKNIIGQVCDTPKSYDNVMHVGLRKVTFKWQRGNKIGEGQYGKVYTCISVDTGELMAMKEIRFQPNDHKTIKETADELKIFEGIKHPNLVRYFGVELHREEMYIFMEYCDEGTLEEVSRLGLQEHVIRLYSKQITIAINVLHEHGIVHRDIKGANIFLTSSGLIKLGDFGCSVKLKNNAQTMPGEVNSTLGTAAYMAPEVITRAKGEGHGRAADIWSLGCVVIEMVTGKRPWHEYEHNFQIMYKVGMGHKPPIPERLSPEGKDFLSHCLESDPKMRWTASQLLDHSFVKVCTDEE", "test": "Inhibition of MAP3K4 (unknown origin) assessed as residual activity at 100 nM by KINOMEscan analysis relative to control"}, "[7]": {"target": "Maternal embryonic leucine zipper kinase (Homo sapiens) (UniProt Q14680)", "sequence (Q14680 whole entry, looked up)": "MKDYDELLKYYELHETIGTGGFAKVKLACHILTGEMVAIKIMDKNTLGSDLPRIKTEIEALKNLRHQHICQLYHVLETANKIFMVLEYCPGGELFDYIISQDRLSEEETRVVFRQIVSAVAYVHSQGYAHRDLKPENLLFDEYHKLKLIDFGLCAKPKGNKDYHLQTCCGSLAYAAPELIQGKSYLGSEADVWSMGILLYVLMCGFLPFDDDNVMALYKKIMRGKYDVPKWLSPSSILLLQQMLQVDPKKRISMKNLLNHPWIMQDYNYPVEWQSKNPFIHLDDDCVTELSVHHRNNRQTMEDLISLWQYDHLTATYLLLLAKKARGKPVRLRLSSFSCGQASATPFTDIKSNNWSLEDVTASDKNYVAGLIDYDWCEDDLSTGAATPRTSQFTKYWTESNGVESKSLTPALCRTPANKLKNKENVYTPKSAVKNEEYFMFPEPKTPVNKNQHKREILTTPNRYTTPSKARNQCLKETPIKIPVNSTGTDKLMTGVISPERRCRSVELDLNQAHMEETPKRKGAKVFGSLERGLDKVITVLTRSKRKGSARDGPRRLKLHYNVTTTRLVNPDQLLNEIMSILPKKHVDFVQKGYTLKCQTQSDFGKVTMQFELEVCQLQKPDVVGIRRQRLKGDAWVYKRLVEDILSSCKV", "test": "Inhibition of MELK (unknown origin) assessed as residual activity at 100 nM by KINOMEscan analysis relative to control"}, "[8]": {"target": "T2, Mitogen-activated protein kinase kinase kinase 7 (Homo sapiens) (UniProt O43318)", "T2 sequence (whole entry)": "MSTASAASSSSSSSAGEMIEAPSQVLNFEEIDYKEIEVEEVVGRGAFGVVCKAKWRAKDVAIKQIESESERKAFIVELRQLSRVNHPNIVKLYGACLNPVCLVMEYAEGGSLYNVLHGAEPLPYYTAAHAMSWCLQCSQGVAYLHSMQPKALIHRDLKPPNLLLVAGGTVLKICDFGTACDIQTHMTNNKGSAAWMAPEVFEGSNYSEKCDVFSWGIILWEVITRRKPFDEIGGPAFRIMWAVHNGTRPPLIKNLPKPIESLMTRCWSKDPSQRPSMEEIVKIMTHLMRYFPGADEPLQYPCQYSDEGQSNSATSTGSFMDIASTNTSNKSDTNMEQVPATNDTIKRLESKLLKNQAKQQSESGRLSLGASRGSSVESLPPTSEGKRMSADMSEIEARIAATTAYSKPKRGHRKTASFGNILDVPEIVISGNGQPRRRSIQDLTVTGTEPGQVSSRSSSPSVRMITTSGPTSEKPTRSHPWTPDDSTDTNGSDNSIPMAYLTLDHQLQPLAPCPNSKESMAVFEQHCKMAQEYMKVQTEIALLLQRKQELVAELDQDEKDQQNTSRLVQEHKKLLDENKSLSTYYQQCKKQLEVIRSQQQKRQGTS", "test": "Inhibition of TAK1 (unknown origin) assessed as residual activity at 100 nM by KINOMEscan analysis relative to control"}, "[9]": {"target": "T3, Serine/threonine-protein kinase TBK1 (Homo sapiens) (UniProt Q9UHD2)", "T3 sequence (whole entry)": "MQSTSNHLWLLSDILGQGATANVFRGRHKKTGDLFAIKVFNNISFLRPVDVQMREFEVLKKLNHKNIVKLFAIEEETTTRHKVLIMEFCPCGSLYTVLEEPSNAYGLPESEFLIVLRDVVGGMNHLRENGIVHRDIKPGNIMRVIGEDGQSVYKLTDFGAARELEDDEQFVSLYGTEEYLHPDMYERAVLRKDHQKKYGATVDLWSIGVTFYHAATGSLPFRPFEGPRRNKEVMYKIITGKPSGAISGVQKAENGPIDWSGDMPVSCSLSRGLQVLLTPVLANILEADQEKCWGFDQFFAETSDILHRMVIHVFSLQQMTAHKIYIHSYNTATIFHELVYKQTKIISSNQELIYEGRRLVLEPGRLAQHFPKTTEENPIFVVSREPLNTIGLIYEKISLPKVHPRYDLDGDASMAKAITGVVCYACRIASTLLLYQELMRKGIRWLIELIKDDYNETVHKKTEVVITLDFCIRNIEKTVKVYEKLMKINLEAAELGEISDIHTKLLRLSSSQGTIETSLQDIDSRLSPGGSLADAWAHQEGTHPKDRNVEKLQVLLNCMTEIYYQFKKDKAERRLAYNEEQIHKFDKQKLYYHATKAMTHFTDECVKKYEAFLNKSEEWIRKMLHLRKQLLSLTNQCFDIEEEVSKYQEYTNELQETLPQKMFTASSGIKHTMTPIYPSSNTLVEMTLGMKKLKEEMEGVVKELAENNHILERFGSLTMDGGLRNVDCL", "test": "Inhibition of TBK1 (unknown origin) assessed as residual activity at 100 nM by KINOMEscan analysis relative to control"}},
  "data": [
    {"smiles": "COc1cc2ncnc(N[C@H](C)c3cccc4ccccc34)c2cc1OC", "values": [
      {"measurement": "inhibition", "setting": "[1]", "result": 102, "unit": "%"},
      {"measurement": "Activity", "setting": "[2]", "result": 97, "unit": "%"},
      {"measurement": "Activity", "setting": "[3]", "result": 92, "unit": "%"},
      {"measurement": "Activity", "setting": "[4]", "result": 89, "unit": "%"},
      {"measurement": "Activity", "setting": "[5]", "result": 87, "unit": "%"},
      {"measurement": "Activity", "setting": "[6]", "result": 68, "unit": "%"},
      {"measurement": "Activity", "setting": "[7]", "result": 73, "unit": "%"},
      {"measurement": "Activity", "setting": "[8]", "result": 83, "unit": "%"},
      {"measurement": "Activity", "setting": "[9]", "result": 96, "unit": "%"}
    ]}
  ]
}
